Measurements reported in patent US11684598B2, “Use of cannabinoids in the treatment of epilepsy” (priority 2015, dated 2023).
Read-outs that look alike come from different tables or passages of the source.

Columns and labels:
[1] = Formulation analysis (decarboxylation of CBDA to CBD); type: physicochemical; conditions: 2:1:17 vehicle of ethanol, cremophor and saline
Excerpt: (§1) A PTZ (Sigma-Aldrich, Poole, UK) stock solution was made in 0.9% w/v NaCl for the experimental procedure.
Formulation analysis was undertaken to determine whether CBDA decarboxylated to CBD because of temperature and/or the excipients in the formulation. […] Therefore, CBDA was not modified during formulation, and a 2:1:17 ratio can be used in future investigations for this phytocannabinoid.

[2] = system: D. discoideum development; test: D. discoideum development assay; type: cell-based, Dictyostelium discoideum
Method: Wild type (A×2) D. discoideum cells were grown in HL5 shaking culture for two days prior to development assay. Cells were washed in phosphate buffer (KK2; 20 mM Potassium phosphate buffer, pH 6.1), and 1×10^7 cells were spread onto nitrocellulose filters (Millipore, Cork). Absorbent pads (Millipore, Cork), divided into quarters, were placed in 2 ml culture dishes and soaked with 0.5 ml KK2 containing the cannabinoids at 20 μM. 1 mM Valproic acid was used as a positive control while KK2 containing 1% DMSO was used as a solvent only control. Nitrocellulose filters containing cells were quartered and place upon absorbent pads and maintained in a humid environment at 22° C. for 24 h. Fruiting body morphology was recorded using a dissection microscope and camera.

[3] = system: D. discoideum cell growth; test: D. discoideum growth assay; type: cell-based, Dictyostelium discoideum
Method: Wild type (A×2) D. discoideum cells were grown in shaking culture (in HL5 medium) for two days prior to growth assays. Cells (9900 in 495 μl of media) were added to each well of a 24 well plate and 5 μl of cannabinoid in DMSO (or DMSO only) was added to each well to achieve each described concentration (1% final DMSO concentration), and cells were maintained at 22° C. Cells were counted at 72 hours, and then every 24 hours. Quadruplicate repeats were used for each concentration.

[4] = system: D. discoideum growth upon R. planticola bacterial plates; test: Bacterial plate screen; type: cell-based, Dictyostelium discoideum; conditions: CBDA 12.3 μM, CBD 16.7 μM; 4 days
Method: Heat killed (75° C. for 30 minutes) R. planticola was spread onto the plates and ˜50 wild-type A×2 cells were added and left to grow at 22° C. Plates were checked regularly for colonies.

[5] = system: PTZ-induced generalised seizures; test: Acute PTZ-induced model of generalised seizure; type: in vivo, rat
Method: Adult male Wistar Kyoto rats were used in the acute PTZ model of seizure (>P24, 70-110 g). Animals were housed five per cage in a heat regulated room (21° C.) on a 12:12 h day/night cycle (lights on 0800) in 50% humidity and given ad libitum access to standard laboratory chow (PCD Mod C, Special Diet Services, Wiltham, UK) and water. All procedures were undertaken during white light hours.
as §1
PTZ antagonises GABA inhibition via binding to the t-butyl-bicycl-phosphorothionate site of GABAA receptors. Moreover, this chemically-induced model can be indicative of effects against absence seizures. PTZ (90 mg/kg) was used to induce seizures in adult male Wistar rats (n=15 per group) with experiment dose randomised using a Latin square design. Animals were placed in their 6 L Perspex tanks and allowed to acclimatise to their environment for 10 min, before receiving one of the cannabinoid doses (see Table 5) in vehicle, or volume-matched dose of vehicle alone to serve as a negative control. 60 min after test compound or vehicle administration, animals were injected with PTZ (90 mg/kg, i.p.) to induce seizures and animal behaviour was recorded for 30 min.
Videos of PTZ-induced seizures were scored offline with a standard seizure severity scale appropriate for generalised seizures (Table 6).
Videos of seizure behaviour generated from the custom built observational system were scored offline according to seizure scales appropriate for PTZ model (Table 6) using Observer Video-Pro software (Noldus, Wageningen, The Netherlands). For the PTZ model of seizure, intra- and inter-observer agreements of behaviour scoring were assessed using the reliability analysis function of the observer Video-Pro software: 1 s tolerance window; Cohen's Kappa coefficient≥0.95.
Specific markers of seizure behaviour and development were assessed and compared between vehicle control and drug groups. The latency (s) to seizure onset and the percentage of animals that developed tonic-clonic seizures was noted (see Table 6). In addition, the maximum seizure severity and the percentage mortality in each group were determined for the acute PTZ model of generalised seizure.
The effect of drug on latency to seizure onset and maximum seizure severity were assessed using Krustal-Wallis with post-hoc Mann-Whitney U-tests. Drug effects on the percentage of animals that developed tonic-clonic seizures and percentage mortality were assessed using Chi-squared with post-hoc Fisher exact tests. In all cases, P≤0.05 was considered significant.

[6] = Toxicokinetics from toxicological studies in dogs, daily oral (gavage) administration; type: in vivo, dog; conditions: dog, plasma, po, 100 mg/kg, Day 1, mean; for AUC0-t: read-out: AUC0-t; for Cmax: read-out: Cmax
Method: Samples were taken from the jugular vein into lithium heparin. Samples were mixed gently by hand then continuously for at least 2 minutes on automatic mixer and placed in a Kryorack until centrifugation, which was carried out at approximately 4° C. as soon as practicable. The resultant plasma was separated under low light conditions, transferred to uniquely labelled clear glass vials, placed in light proof boxes and frozen immediately at <−50° C.

[7] = female, comparative Table 11, females
[8] = male, comparative Table 10, males

Row | Structure (SMILES) | conversion of CBDA to CBD during formulation [1] | effect on development (fruiting body morphology) ([2]; 20 μM, 24 h on nitrocellulose filter) | IC50 ([3]; Dictyostelium discoideum, 168 h, read-out: growth inhibitory constant (IC50)) [µM] | concentration blocking growth ([3]; growth over one week) [µM] | concentration significantly inhibiting cell growth (P<0.05) ([3]; growth over one week) [µM] | cell survival (colony number) compared to control (solvent only) [4] | effect on percentage mortality ([5]; 100 mg/kg CBD (P≤0.01), 100 mg/kg CBDA (P=0.0656), CBD/CBDA ratio (P=0.0656)) | effect on latency to seizure onset ([5]; 100 mg/kg CBD (P≤0.05), CBD/CBDA 9:1 (P≤0.05), CBDA 100 mg/kg (P=0.0929)) | median score for the maximum seizure severity ([5]; 100 mg/kg, PTZ 90 mg/kg i.p. 60 min after compound, scale of Table 6, n=15) | effect on incidence of tonic-clonic seizures ([5]; 100 mg/kg, P≤0.1) | effect on seizure severity vs vehicle control ([5]; CBDA 100 mg/kg, CBD/CBDA 9:1 ratio (90/10 mg/kg), P≤0.05) | AUC0-t [6, 7] [µg·h/mL] | Cmax [6, 7] [ng/mL] | AUC0-t [6, 8] [µg·h/mL] | Cmax [6, 8] [ng/mL] | effect on development (fruiting body morphology) ([2]; 1 mM, positive control, 24 h)
1 | C=C(C)[C@@H]1CCC(C)=C[C@H]1c1c(O)cc(CCCCC)c(C(=O)O)c1O [CBDA, Cannabidiolic acid] | not converted to CBD during formulation | able to aggregate and develop to form mature fruiting bodies | 0.3 | 20 | 0.08 | No difference in colony number | trend towards a significant reduction | trend towards increasing the latency to seizure onset | 3 | trend towards a reduction in tonic-clonic seizures | significant anti-convulsant effects | 179 | 38600 | 80.5 | 24900 | 
2 | CCCC(CCC)C(=O)O [valproic acid] |  |  |  |  |  |  |  |  |  |  |  |  |  |  |  | able to aggregate but unable to undergo development to form fruiting bodies
